Measured values reported in ChEMBL document CHEMBL1201862, “PubChem BioAssay data set” (2004).
Several values for one entry are separate records, joined by “and”; a condition that tells them apart may be missing. Equal entries are not always repeated.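 Five concentrations, 48 hours, 96-well plates. The concentration for 50% growth inhibition is given as GI50.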 Activity calls are given as the source filed them. Rule as the data show it: active = GI50 up to about 1.1 µM and inactive = higher.

How the values were obtained:
Experiment in all cases: NCI-60 cell line screen, 48 h
[1] = system: LOX IMVI
[2] = system: 786-0
[3] = system: MDA-MB-231
[4] = system: OVCAR-4
[5] = system: DU-145
[6] = system: ACHN
[7] = system: CCRF-CEM
[8] = system: EKVX
[9] = system: UACC-257
[10] = system: RXF 393
[11] = system: TK-10
[12] = system: UACC-62
[13] = system: NCI/ADR-RES
[14] = system: HCT-15
[15] = system: SK-MEL-28
[16] = system: Hs-578T
[17] = system: BT-549
[18] = system: A498
[19] = system: T47D

| Structure (SMILES) | GI50 [1] | GI50 [2] | GI50 [3] | GI50 [4] | GI50 [5] | GI50 [6] | GI50 [7] | GI50 [8] | GI50 [9] | GI50 [10] | GI50 [11] | GI50 [12] | GI50 [13] | GI50 [14] | GI50 [15] | GI50 [16] | GI50 [17] | GI50 [18] | GI50 [19] |
| --- | --- | --- | --- | --- | --- | --- | --- | --- | --- | --- | --- | --- | --- | --- | --- | --- | --- | --- | --- |
| COc1cc2c(cc1OCCCN1CCN(C)CC1)N=C[C@@H]1CCCN1C2=O | 1.49 µM (inactive) | 3.4 µM (inactive) | 2.18 µM (inactive) | 2.15 µM (inactive) | 2.25 µM (inactive) | 2.17 µM (inactive) | 0.485 µM (active) | 2.03 µM (inactive) | 2.5 µM (inactive) | 1.87 µM (inactive) | 3.34 µM (inactive) | 1.78 µM (inactive) | 3.5 µM (inactive) | 2.25 µM | 1.9 µM (inactive) | 5.12 µM (inactive) | 1.77 µM (inactive) | 2.34 µM (inactive) |  |
| CC(CCC(=O)O)[C@H]1CCC2[C@H]3C(CC(=O)[C@@]21C)[C@@]1(C)CCC(O)C[C@H]1C[C@@H]3O (some centres not stated) | > 100 µM (inactive) | > 100 µM (inactive) | > 100 µM (inactive) | > 100 µM (inactive) | > 100 µM (inactive) | > 100 µM (inactive) | > 100 µM (inactive) | > 100 µM (inactive) | > 100 µM (inactive) | > 100 µM (inactive) |  | > 100 µM (inactive) | > 100 µM (inactive) | > 100 µM | > 100 µM (inactive) |  | > 100 µM (inactive) | > 100 µM (inactive) | > 100 µM (inactive) |
| Cc1ccc(NC(=O)/C(CC2Nc3c(ccc4c3C(=O)c3ccccc3C4=O)NC2O)=N/NC(C)(C)C)cc1 (configuration not stated) | 7.23 µM (inactive) | 4.52 µM (inactive) | 3.42 µM (inactive) | 17.7 µM (inactive) | 7.36 µM (inactive) | 12.4 µM (inactive) | 1.36 µM (inactive) | 10 µM (inactive) | 16.1 µM (inactive) | 11.1 µM (inactive) | 7.66 µM (inactive) | 11.9 µM (inactive) | 1.67 µM (inactive) | 5.79 µM | 12.1 µM (inactive) | 9.4 µM (inactive) | 22 µM (inactive) |  |  |
| Cc1cn(C(CO)OC(CO)CN(O)C2C3CC4CC(C3)CC2C4)c(=O)[nH]c1=O (configuration not stated) |  | > 100 µM (inactive) | > 100 µM (inactive) | > 100 µM (inactive) | > 100 µM (inactive) | > 100 µM (inactive) |  | > 100 µM (inactive) | > 100 µM (inactive) |  | > 100 µM (inactive) | > 100 µM (inactive) |  | > 100 µM | > 100 µM (inactive) | > 100 µM (inactive) | > 100 µM (inactive) | > 100 µM (inactive) | > 100 µM (inactive) |
| CCCN(CCC)CCc1ccc(OC2=CCN(C)CC2)cc1 | 23 µM (inactive) | 39.9 µM (inactive) | > 100 µM (inactive) | > 100 µM (inactive) | > 100 µM (inactive) | 95.5 µM (inactive) | 93.5 µM (inactive) | > 100 µM (inactive) | 20.3 µM (inactive) | > 100 µM (inactive) | 87.3 µM (inactive) | 38 µM (inactive) | > 100 µM (inactive) | 36.9 µM | 35.3 µM (inactive) | 40.6 µM (inactive) | 29.8 µM (inactive) |  | > 100 µM (inactive) |
| Cc1ccc(C(=O)CCC2C(=O)CC(C)(C)CC2=O)cc1 | > 100 µM (inactive) | > 100 µM (inactive) | > 100 µM (inactive) | > 100 µM (inactive) | > 100 µM (inactive) | > 100 µM (inactive) | 24.5 µM (inactive) | > 100 µM (inactive) | > 100 µM (inactive) | > 100 µM (inactive) | > 100 µM (inactive) | > 100 µM (inactive) | > 100 µM (inactive) | > 100 µM | > 100 µM (inactive) | > 100 µM (inactive) | > 100 µM (inactive) |  |  |
| O=C(/C=C/c1ccccc1)c1ccccn1 | 10.9 µM (inactive) and 17.6 µM (inactive) | 12.3 µM (inactive) and 17.2 µM (inactive) |  | 17.3 µM (inactive) and 20.6 µM (inactive) | 12.4 µM (inactive) and 18.3 µM (inactive) | 15.5 µM (inactive) and 16.9 µM (inactive) | 10 µM (inactive) and 17.1 µM (inactive) | 22 µM (inactive) and 18.1 µM (inactive) | 13.2 µM (inactive) and 16.4 µM (inactive) | 19.2 µM (inactive) and 18.6 µM (inactive) | 19 µM (inactive) and 15.2 µM (inactive) | 16.6 µM (inactive) and 20.6 µM (inactive) | 22.2 µM (inactive) and 28.4 µM (inactive) | 11.8 µM and 18.5 µM | 17 µM (inactive) and 26.2 µM (inactive) | 22.6 µM (inactive) | 24 µM (inactive) and 18.8 µM (inactive) | 13 µM (inactive) and 17.5 µM (inactive) | 23.8 µM (inactive) and 13 µM (inactive) |
| O=C1c2ccccc2-c2c1c(-c1ccccc1)c1n2C2(C(=O)c3ccccc3C2=O)C2C(=O)N(c3ccccc3)C(=O)C12 (configuration not stated) | 17 µM (inactive) | 23.4 µM (inactive) |  | 31.4 µM (inactive) | 28.5 µM (inactive) | 31.9 µM (inactive) | 26.1 µM (inactive) | 24 µM (inactive) | 30.6 µM (inactive) | 17.6 µM (inactive) | 28.1 µM (inactive) | 21.6 µM (inactive) | 74.6 µM (inactive) | 16.4 µM | 28.9 µM (inactive) | 17.8 µM (inactive) | 17.5 µM (inactive) | 28.1 µM (inactive) | 16.9 µM (inactive) |
| CCCCCCOC(=O)/C=C/[C@]1(CO)C/C(=C/CC(C(C)C)C(C)C)C(=O)O1 | 10.6 µM (inactive) | 4.36 µM (inactive) |  | 19.1 µM (inactive) | 18.2 µM (inactive) | 6.95 µM (inactive) |  | 1.28 µM (inactive) | 16.5 µM (inactive) | 18.2 µM (inactive) | 1.77 µM (inactive) | 13.9 µM (inactive) | 13.9 µM (inactive) | 14.6 µM | 10.4 µM (inactive) | 4.75 µM (inactive) | 10.5 µM (inactive) | 4.82 µM (inactive) | 16.8 µM (inactive) |
| COc1ccc(C2C=C(c3ccc4c(c3)OCO4)Oc3c2c(=O)oc2ccccc32)cc1OC (configuration not stated) | 0.593 µM (active) | 0.43 µM (active) | 1.36 µM (inactive) | > 100 µM (inactive) | 0.417 µM (active) | 0.627 µM (active) | 0.406 µM (active) | 16.5 µM (inactive) |  | 0.252 µM (active) |  | 0.294 µM (active) | 0.543 µM (active) | 0.415 µM | > 93.1 µM (inactive) | 0.513 µM (active) | 3.18 µM (inactive) | 0.502 µM (active) |  |
| O=P(O)(O)CN1CCNCCN(CP(=O)(O)O)CCNCC1 | 15.7 µM (inactive) | > 30.8 µM (inactive) | > 100 µM (inactive) | > 71.3 µM (inactive) | > 100 µM (inactive) | > 100 µM (inactive) | 3.52 µM (inactive) | > 95.9 µM (inactive) | 41.8 µM (inactive) | > 100 µM (inactive) | > 62.2 µM (inactive) | 7.74 µM (inactive) | 35.2 µM (inactive) | 4.2 µM | > 100 µM (inactive) | > 100 µM (inactive) | > 100 µM (inactive) | 8.36 µM (inactive) |  |
| Cc1cc2[nH]c3c(C#N)c(-c4ccccc4)c(/C=N/c4ccc(Cl)cc4)c(=O)n3c2cc1C | > 100 µM (inactive) | > 100 µM (inactive) | > 100 µM (inactive) | > 100 µM (inactive) |  | > 100 µM (inactive) | > 100 µM (inactive) | > 100 µM (inactive) | > 100 µM (inactive) | > 100 µM (inactive) | > 100 µM (inactive) |  | > 100 µM (inactive) | > 100 µM | > 100 µM (inactive) |  | > 100 µM (inactive) | > 100 µM (inactive) | > 100 µM (inactive) |
| O=[N+]([O-])c1ccc2c(c1)c(S(=O)(=O)O)cc1nonc12 | > 100 µM (inactive) | > 100 µM (inactive) | > 100 µM (inactive) | > 100 µM (inactive) |  | > 100 µM (inactive) |  | > 100 µM (inactive) | > 100 µM (inactive) |  | > 100 µM (inactive) | > 100 µM (inactive) | > 100 µM (inactive) | > 100 µM | > 100 µM (inactive) | > 100 µM (inactive) | > 100 µM (inactive) | > 100 µM (inactive) | > 100 µM (inactive) |
| O=C1Nc2ccccc2/C1=N/NC(=S)Nc1ccc([N+](=O)[O-])cc1 | 2.94 µM (inactive) | 4.81 µM (inactive) | 0.208 µM (active) | 18.6 µM (inactive) | 14.8 µM (inactive) | 6.84 µM (inactive) | 1.53 µM (inactive) | 12.3 µM (inactive) | 21.1 µM (inactive) |  | 10 µM (inactive) | 8.47 µM (inactive) | 3.01 µM (inactive) | 2.33 µM | 14.2 µM (inactive) | 15.6 µM (inactive) | 14.4 µM (inactive) |  | 10.4 µM (inactive) |
| Cc1cc(O)c2c(=O)c3ccccc3[nH]c2c1 | 18.8 µM (inactive) | 15.6 µM (inactive) | 32.4 µM (inactive) | 15.1 µM (inactive) | 35.2 µM (inactive) | 21.5 µM (inactive) | 24.1 µM (inactive) | 41.1 µM (inactive) | 20.1 µM (inactive) | 27 µM (inactive) | 49.2 µM (inactive) | > 10 µM (inactive) | 23.5 µM (inactive) | 11.4 µM | 42.7 µM (inactive) | 45.3 µM (inactive) | 24.8 µM (inactive) | 32.8 µM (inactive) |  |
| O=C(/C=C1/Nc2ccc([N+](=O)[O-])cc2N/C1=C/C(=O)c1ccc(Cl)cc1)c1ccccc1 |  | 48.3 µM (inactive) | 35 µM (inactive) | > 100 µM (inactive) | > 100 µM (inactive) | > 100 µM (inactive) | 64.7 µM (inactive) | > 100 µM (inactive) | > 100 µM (inactive) | 23.8 µM (inactive) | 59 µM (inactive) | 20.5 µM (inactive) | 60.3 µM (inactive) | > 100 µM |  |  | > 100 µM (inactive) | 35.6 µM (inactive) | > 100 µM (inactive) |
